These results are taken from patent publication US12441691B2 (Cytokinetics, Inc., priority 2020, dated 2025).

The assay concerns rabbit skeletal myofibrils (fast skeletal myofibrils). Put plainly: Activation of fast skeletal myofibrils (PUMA assay, AC1.4). It is filed as biochemical. Particulars: calcium at pCa25, AC1.4 = concentration at which the compound increased the enzymatic activity. The essentials:
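In 12 mM PIPES pH 6.8 with 2 mM MgCl2 and 1 mM DTT, Triton-washed rabbit skeletal myofibrils were run at the pCa25 calcium level. Myosin-made ADP was recycled through a PK/LDH coupled system; NADH loss read at 340 nm.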

Take `CC[C@H](C)[C@H]1C(=O)Nc2ccccc2CN1C(=O)N(C)CCO` [Compound 225, (S)-3-((S)-sec-butyl)-N-(2-hydroxyethyl)-N-methyl-2-oxo-1,2,3,5-tetrahydro-4H-benzo[e][1,4]diazepine-4-carboxamide]: the AC1.4 amounted to 1.67 µM.
As to `CC[C@H](C)[C@H]1C(=O)Nc2ccccc2CN1C(=O)N1CCNCC1` [Compound 226, (S)-3-((S)-sec-butyl)-4-(piperazine-1-carbonyl)-1,3,4,5-tetrahydro-2H-benzo[e][1,4]diazepin-2-one], the AC1.4 was 3.91 µM.
In the case of `CC[C@H](C)[C@H]1C(=O)Nc2ccccc2CN1C(=O)N1CCC(O)C1` (stereo partly drawn) [Compound 227, (3S)-3-((S)-sec-butyl)-4-(3-hydroxypyrrolidine-1-carbonyl)-1,3,4,5-tetrahydro-2H-benzo[e][1,4]diazepin-2-one] it was 2.29 µM; in that of `CC[C@H](C)[C@H]1C(=O)Nc2ccccc2CN1C(=O)N(C)CC(N)=O` [Compound 228, (S)-N-(2-amino-2-oxoethyl)-3-((S)-sec-butyl)-N-methyl-2-oxo-1,2,3,5-tetrahydro-4H-benzo[e][1,4]diazepine-4-carboxamide], 3.76 µM; in that of `CC[C@H](C)[C@H]1C(=O)Nc2ccccc2CN1C(=O)N1CCNC(=O)C1` [Compound 229, (S)-3-((S)-sec-butyl)-4-(3-oxopiperazine-1-carbonyl)-1,3,4,5-tetrahydro-2H-benzo[e][1,4]diazepin-2-one], 3.74 µM.
In the case of `CC[C@H](C)[C@H]1C(=O)Nc2ccccc2CN1C(=O)N1CCN(C)CC1` [Compound 230, (S)-3-((S)-sec-butyl)-4-(4-methylpiperazine-1-carbonyl)-1,3,4,5-tetrahydro-2H-benzo[e][1,4]diazepin-2-one], the AC1.4 stood at 1.31 µM.
In the case of `CC[C@H](C)[C@H]1C(=O)Nc2ccccc2CN1C(=O)N1CCN[C@@H](C)C1` [Compound 231, (S)-3-((S)-sec-butyl)-4-((S)-3-methylpiperazine-1-carbonyl)-1,3,4,5-tetrahydro-2H-benzo[e][1,4]diazepin-2-one] it was 4.86 µM; in that of `CC[C@H](C)[C@H]1C(=O)Nc2ccccc2CN1C(=O)N[C@@H](C)C(=O)NC` [Compound 232, (S)-3-((S)-sec-butyl)-N-((S)-1-(methylamino)-1-oxopropan-2-yl)-2-oxo-1,2,3,5-tetrahydro-4H-benzo[e][1,4]diazepine-4-carboxamide], 3.47 µM; in that of `CC[C@H](C)[C@H]1C(=O)Nc2ccccc2CN1C(=O)N(C)c1cnccn1` [Compound 233, (S)-3-((S)-sec-butyl)-N-methyl-2-oxo-N-(pyrazin-2-yl)-1,2,3,5-tetrahydro-4H-benzo[e][1,4]diazepine-4-carboxamide], 2.16 µM.
In the case of `CC[C@H](C)[C@H]1C(=O)Nc2ccccc2CN1C(=O)N1CCC(N(C)C)C1` (stereo partly drawn) [Compound 234, (3S)-3-((S)-sec-butyl)-4-(3-(dimethylamino)pyrrolidine-1-carbonyl)-1,3,4,5-tetrahydro-2H-benzo[e][1,4]diazepin-2-one], the AC1.4 worked out at 4.64 µM.
To `CC[C@H](C)[C@H]1C(=O)Nc2ccccc2CN1C(=O)N(C)C1CCN(C)C1` (stereo partly drawn) [Compound 235, (3S)-3-((S)-sec-butyl)-N-methyl-N-(1-methylpyrrolidin-3-yl)-2-oxo-1,2,3,5-tetrahydro-4H-benzo[e][1,4]diazepine-4-carboxamide] belongs 1.45 µM.
Regarding `CC[C@H](C)[C@H]1C(=O)Nc2ccccc2CN1C(=O)N1CCC[C@H]1C(=O)O` [Compound 236, ((S)-3-((S)-sec-butyl)-2-oxo-2,3,4,5-tetrahydro-1H-benzo[e][1,4]diazepine-4-carbonyl)-L-proline], the AC1.4 was 3.43 µM.
To `CC[C@H](C)[C@H]1C(=O)Nc2ccccc2CN1C(=O)N(C)Cc1coc(C)n1` [Compound 237, (S)-3-((S)-sec-butyl)-N-methyl-N-((2-methyloxazol-4-yl)methyl)-2-oxo-1,2,3,5-tetrahydro-4H-benzo[e][1,4]diazepine-4-carboxamide] belongs 1.86 µM; to `CC[C@H](C)[C@H]1C(=O)Nc2ccccc2CN1C(=O)N1CCCC(C(N)=O)C1` (stereo partly drawn) [Compound 238, 1-((S)-3-((S)-sec-butyl)-2-oxo-2,3,4,5-tetrahydro-1H-benzo[e][1,4]diazepine-4-carbonyl)piperidine-3-carboxamide], 4.49 µM; to `CC[C@H](C)[C@H]1C(=O)Nc2ccccc2CN1C(=O)N1CCC(N(C)C)CC1` [Compound 239, (S)-3-((S)-sec-butyl)-4-(4-(dimethylamino)piperidine-1-carbonyl)-1,3,4,5-tetrahydro-2H-benzo[e][1,4]diazepin-2-one], 1.65 µM.
To `CC[C@H](C)[C@H]1C(=O)Nc2ccccc2CN1C(=O)N(C)CCS(C)(=O)=O` [Compound 240, (S)-3-((S)-sec-butyl)-N-methyl-N-(2-(methylsulfonyl)ethyl)-2-oxo-1,2,3,5-tetrahydro-4H-benzo[e][1,4]diazepine-4-carboxamide] belongs 2.87 µM; to `CC[C@H](C)[C@H]1C(=O)Nc2ccccc2CN1C(=O)N1CCCn2c(C)nnc21` [Compound 241, (S)-3-((S)-sec-butyl)-4-(3-methyl-5,6,7,8-tetrahydro-[1,2,4]triazolo[4,3-a]pyrimidine-8-carbonyl)-1,3,4,5-tetrahydro-2H-benzo[e][1,4]diazepin-2-one], 1.35 µM; to `CC[C@H](C)[C@H]1C(=O)Nc2ccccc2CN1C(=O)N1CCC(N(C)C(C)=O)C1` (stereo partly drawn) [Compound 242, N-(1-((S)-3-((S)-sec-butyl)-2-oxo-2,3,4,5-tetrahydro-1H-benzo[e][1,4]diazepine-4-carbonyl)pyrrolidin-3-yl)-N-methylacetamide], 4.30 µM.
Turning to `CC[C@H](C)[C@H]1C(=O)Nc2ccccc2CN1C(=O)N1CCN(C(=O)OC)CC1` [Compound 243, methyl 4-((S)-3-((S)-sec-butyl)-2-oxo-2,3,4,5-tetrahydro-1H-benzo[e][1,4]diazepine-4-carbonyl)piperazine-1-carboxylate], the AC1.4 was 1.93 µM.
For the compound `CC[C@H](C)[C@H]1C(=O)Nc2ccccc2CN1C(=O)N1CCCC1c1nc(C)no1` (stereo partly drawn) [Compound 244, (3S)-3-((S)-sec-butyl)-4-(2-(3-methyl-1,2,4-oxadiazol-5-yl)pyrrolidine-1-carbonyl)-1,3,4,5-tetrahydro-2H-benzo[e][1,4]diazepin-2-one], the AC1.4 worked out at 2.43 µM.
For the compound `CC[C@H](C)[C@H]1C(=O)Nc2ccccc2CN1C(=O)N1CCC2(CC1)CNC(=O)C2` [Compound 245, (S)-3-((S)-sec-butyl)-4-(3-oxo-2,8-diazaspiro[4.5]decane-8-carbonyl)-1,3,4,5-tetrahydro-2H-benzo[e][1,4]diazepin-2-one], the AC1.4 came out at 3.88 µM.
As for `CC[C@H](C)[C@H]1C(=O)Nc2ccccc2CN1C(=O)N1CCN(S(C)(=O)=O)CC1` [Compound 246, (S)-3-((S)-sec-butyl)-4-(4-(methylsulfonyl)piperazine-1-carbonyl)-1,3,4,5-tetrahydro-2H-benzo[e][1,4]diazepin-2-one], the AC1.4 turned out to be 1.64 µM.
On to `CC[C@H](C)[C@H]1C(=O)Nc2ccccc2CN1C(=O)N1CCC[C@H](NS(C)(=O)=O)C1` [Compound 247, N-((S)-1-((S)-3-((S)-sec-butyl)-2-oxo-2,3,4,5-tetrahydro-1H-benzo[e][1,4]diazepine-4-carbonyl)piperidin-3-yl)methanesulfonamide], for which the AC1.4 was 2.49 µM.
To `CC[C@H](C)[C@H]1C(=O)Nc2ccccc2CN1C(=O)N1CCC[C@@H](NS(C)(=O)=O)C1` [Compound 248, N-((R)-1-((S)-3-((S)-sec-butyl)-2-oxo-2,3,4,5-tetrahydro-1H-benzo[e][1,4]diazepine-4-carbonyl)piperidin-3-yl)methanesulfonamide] belongs 3.71 µM; to `CC[C@H](C)[C@H]1C(=O)Nc2ccccc2CN1C(=O)N1CC(C(=O)O)C1` [Compound 249, 1-((S)-3-((S)-sec-butyl)-2-oxo-2,3,4,5-tetrahydro-1H-benzo[e][1,4]diazepine-4-carbonyl)azetidine-3-carboxylic acid], 4.51 µM; to `CC[C@H](C)[C@H]1C(=O)Nc2ccccc2CN1C(=O)N1CC(C(N)=O)C1` [Compound 250, 1-((S)-3-((S)-sec-butyl)-2-oxo-2,3,4,5-tetrahydro-1H-benzo[e][1,4]diazepine-4-carbonyl)azetidine-3-carboxamide], 0.60 µM.
To `CC[C@H](C)[C@H]1C(=O)Nc2ccccc2CN1C(=O)Nc1nncs1` [Compound 251, (S)-3-((S)-sec-butyl)-2-oxo-N-(1,3,4-thiadiazol-2-yl)-1,2,3,5-tetrahydro-4H-benzo[e][1,4]diazepine-4-carboxamide] belongs 0.08 µM.
With `CC[C@H](C)[C@H]1C(=O)Nc2ccccc2CN1C(=O)N[C@@H](C(N)=O)c1ccccc1` [Compound 252, (S)-N-((R)-2-amino-2-oxo-1-phenylethyl)-3-((S)-sec-butyl)-2-oxo-1,2,3,5-tetrahydro-4H-benzo[e][1,4]diazepine-4-carboxamide], the AC1.4 came out at 0.44 µM.
Consider `CC[C@H](C)[C@H]1C(=O)Nc2ccccc2CN1C(=O)Nc1ccc(=O)n(CC)c1` [Compound 253, (S)-3-((S)-sec-butyl)-N-(1-ethyl-6-oxo-1,6-dihydropyridin-3-yl)-2-oxo-1,2,3,5-tetrahydro-4H-benzo[e][1,4]diazepine-4-carboxamide], for which the AC1.4 turned out to be 0.08 µM.
In the case of `CC[C@H](C)[C@H]1C(=O)Nc2ccccc2CN1C(=O)Nc1ccc(=O)n(CC2CC2)c1` [Compound 254, (S)-3-((S)-sec-butyl)-N-(1-(cyclopropylmethyl)-6-oxo-1,6-dihydropyridin-3-yl)-2-oxo-1,2,3,5-tetrahydro-4H-benzo[e][1,4]diazepine-4-carboxamide] it was 0.07 µM.
